Test results reported in ChEMBL document CHEMBL5550149, “Synthesis and evaluation of catecholamine derivatives as amyloid-beta aggregation inhibitors” (Bioorg Med Chem Lett, 2024).
In brackets after ≈: the same amount, converted by molar mass. Activity calls are given as the source filed them. No cut-off for these calls is given here.

Assays:
[1] = Aqueous solubility of compound by shake flask method; assay type: physicochemical; conditions: water
[2] = target: Amyloid-beta precursor protein (Homo sapiens) (UniProt P05067); assay: Inhibition of amyloid beta (unknown origin) aggregation at 1 uM incubated for 20 hrs by Tht-based fluorescence spectroscopy assay relative to control
Chain of Amyloid-beta precursor protein (Homo sapiens) (P05067 whole entry): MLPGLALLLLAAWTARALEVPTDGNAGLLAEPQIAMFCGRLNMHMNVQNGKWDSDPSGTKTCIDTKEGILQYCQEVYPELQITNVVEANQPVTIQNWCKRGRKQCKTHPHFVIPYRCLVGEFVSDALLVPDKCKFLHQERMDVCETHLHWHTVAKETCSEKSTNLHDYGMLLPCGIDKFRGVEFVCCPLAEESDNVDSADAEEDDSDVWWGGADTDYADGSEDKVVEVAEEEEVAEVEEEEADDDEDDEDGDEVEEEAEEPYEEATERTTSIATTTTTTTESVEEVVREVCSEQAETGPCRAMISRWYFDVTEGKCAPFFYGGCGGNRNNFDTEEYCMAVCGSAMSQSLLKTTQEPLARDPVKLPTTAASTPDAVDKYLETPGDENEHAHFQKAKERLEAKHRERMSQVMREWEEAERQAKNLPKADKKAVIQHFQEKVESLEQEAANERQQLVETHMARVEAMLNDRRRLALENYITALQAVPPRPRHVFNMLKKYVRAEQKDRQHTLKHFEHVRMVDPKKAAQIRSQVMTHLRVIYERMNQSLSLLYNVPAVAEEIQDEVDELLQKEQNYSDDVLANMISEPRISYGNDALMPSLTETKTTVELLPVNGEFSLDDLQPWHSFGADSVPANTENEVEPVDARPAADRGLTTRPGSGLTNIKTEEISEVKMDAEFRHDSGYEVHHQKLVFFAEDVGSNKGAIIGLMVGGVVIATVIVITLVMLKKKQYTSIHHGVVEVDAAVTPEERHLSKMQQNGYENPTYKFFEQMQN

[3] = Cytotoxicity against rat PC12 cells measured for 24 hrs by WST-assay; assay type: toxicity, cell-based, PC-12
[4] = target: Amyloid-beta precursor protein (Homo sapiens) (UniProt P05067); assay: Inhibition of amyloid beta (unknown origin) aggregation at 10 uM incubated for 20 hrs by Tht-based fluorescence spectroscopy assay relative to control
[5] = target: Amyloid-beta precursor protein (Homo sapiens) (UniProt P05067); assay: Inhibition of amyloid beta (unknown origin) aggregation assessed as change in aggregated monomers structure measured for 10 hrs by Tht-based fluorescence spectroscopy assay
[6] = target: Amyloid-beta precursor protein (Homo sapiens) (UniProt P05067); assay: Inhibition of amyloid beta (unknown origin) aggregation assessed as reduction in rod like structure by […] analysis
[7] = target: Amyloid-beta precursor protein (Homo sapiens) (UniProt P05067); assay: Inhibition of amyloid beta (unknown origin) aggregation assessed as aggregate diameter by […] analysis
[8] = target: Amyloid-beta precursor protein (Homo sapiens) (UniProt P05067); assay: Inhibition of amyloid beta (unknown origin) aggregation assessed as reduction in beta-sheet formation by CD spectroscopy analysis

O=C(N[C@H](CO)Cc1ccc(O)c(O)c1)c1ccc(O)cc1
solubility thermodynamic [1]: 1600 µM (≈ 485 µg/mL)
inhibition [2]: 0%
CC50 at 24 h [3]: > 150 µM
inhibition [4]: 20%

O=C(Cc1cc(O)c(O)c(O)c1)NCCc1ccc(O)c(O)c1
solubility thermodynamic [1]: 3200 µM (≈ 1020 µg/mL)
inhibition [2]: 20%
CC50 at 24 h [3]: 80 µM
inhibition [4]: 90%

O=C(N[C@H](CO)Cc1ccc(O)c(O)c1)c1cc(O)ccc1O
solubility thermodynamic [1]: 2500 µM (≈ 798 µg/mL)
inhibition [2]: 28%
CC50 at 24 h [3]: > 150 µM
inhibition [4]: 70%

O=C(Cc1ccccc1)NCCc1ccc(O)c(O)c1
solubility thermodynamic [1]: 1300 µM (≈ 353 µg/mL)
inhibition [2]: 0%
CC50 at 24 h [3]: > 150 µM
inhibition [4]: 30%

O=C(/C=C/c1ccc(O)c(O)c1)NCCc1ccc(O)c(O)c1
inhibition [5]: Active
solubility thermodynamic [1]: 1500 µM (≈ 473 µg/mL)
inhibition [6]: Active
Activity [7]: 74 nm
inhibition [8]: inactive
inhibition [2]: 55%
CC50 at 24 h [3]: > 150 µM
inhibition [4]: 100%

O=C(Cc1cc(O)ccc1O)NCCc1ccc(O)c(O)c1
solubility thermodynamic [1]: 800 µM (≈ 243 µg/mL)
inhibition [2]: 19%
CC50 at 24 h [3]: > 150 µM
inhibition [4]: 80%

O=C(/C=C/c1ccccc1)NCCc1ccc(O)c(O)c1
solubility thermodynamic [1]: 750 µM (≈ 212 µg/mL)
inhibition [2]: 40%
CC50 at 24 h [3]: > 150 µM
inhibition [4]: 92%

O=C(Cc1ccc(O)c(O)c1)NCCc1ccc(O)c(O)c1
solubility thermodynamic [1]: 2500 µM (≈ 758 µg/mL)
inhibition [2]: 29%
CC50 at 24 h [3]: > 150 µM
inhibition [4]: 92%

O=C(N[C@H](CO)Cc1ccc(O)c(O)c1)c1cc(O)cc(O)c1
solubility thermodynamic [1]: 1500 µM (≈ 479 µg/mL)
inhibition [2]: 0%
CC50 at 24 h [3]: > 150 µM
inhibition [4]: 22%

N[C@@H](Cc1ccc(O)c(O)c1)C(=O)O
inhibition [2]: 0%
inhibition [4]: 31%

O=C(N[C@H](CO)Cc1ccc(O)c(O)c1)c1cccc(O)c1O
solubility thermodynamic [1]: 1300 µM (≈ 415 µg/mL)
inhibition [2]: 0%
CC50 at 24 h [3]: > 150 µM
inhibition [4]: 80%

O=C(Cc1ccc(O)cc1)NCCc1ccc(O)c(O)c1
solubility thermodynamic [1]: 2000 µM (≈ 575 µg/mL)
inhibition [2]: 18%
CC50 at 24 h [3]: > 150 µM
inhibition [4]: 80%

O=C(Cc1cccc(O)c1O)NCCc1ccc(O)c(O)c1
solubility thermodynamic [1]: 2000 µM (≈ 607 µg/mL)
inhibition [2]: 0%
CC50 at 24 h [3]: > 150 µM
inhibition [4]: 70%

O=C(N[C@H](CO)Cc1ccc(O)c(O)c1)c1ccccc1
solubility thermodynamic [1]: 700 µM (≈ 201 µg/mL)
inhibition [2]: 0%
CC50 at 24 h [3]: > 150 µM
inhibition [4]: 70%

COC(=O)[C@H](Cc1ccc(O)c(O)c1)NC(=O)c1cc(O)c(O)c(O)c1
solubility thermodynamic [1]: 377 µM (≈ 137 µg/mL)
inhibition [2]: 30%
CC50 at 24 h [3]: 150 µM
inhibition [4]: 95%

O=C(/C=C/c1ccc(O)c(O)c1)N[C@@H](Cc1ccc(O)c(O)c1)C(=O)O
solubility thermodynamic [1]: 1410 µM (≈ 507 µg/mL)
CC50 at 24 h [3]: > 150 µM
inhibition [4]: 86%

O=C1C=C(c2ccc(O)c(O)c2)OC(c2cc(O)ccc2O)C1 (centres undefined)
solubility thermodynamic [1]: 2340 µM (≈ 735 µg/mL)
inhibition [2]: 76%

O=C(N[C@H](CO)Cc1ccc(O)c(O)c1)c1ccc(O)c(O)c1
solubility thermodynamic [1]: 1200 µM (≈ 383 µg/mL)
inhibition [2]: 35%
CC50 at 24 h [3]: > 150 µM
inhibition [4]: 90%

O=C(N[C@H](CO)Cc1ccc(O)c(O)c1)c1cc(O)c(O)c(O)c1
solubility thermodynamic [1]: 3000 µM (≈ 1010 µg/mL)
inhibition [2]: 16%
CC50 at 24 h [3]: 80 µM
inhibition [4]: 85%

O=C(Cc1cc(O)cc(O)c1)NCCc1ccc(O)c(O)c1
solubility thermodynamic [1]: 1800 µM (≈ 546 µg/mL)
inhibition [2]: 0%
CC50 at 24 h [3]: > 150 µM
inhibition [4]: 25%
